The record followed here is paper PMC11304236, “A Novel Drug Candidate for Sepsis Targeting Heparanase by Inhibiting Cytokine Storm” (Advanced Science, 2024).

One may read the IC50 as the concentration that inhibits the measured activity by half. The low end stands for greater potency in that assay, the high end for weaker potency in that assay.

Test [1] deals with T1, HPA (Homo sapiens, UniProt Q9Y251).
T1 sequence (Q9Y251 158-543 limits assumed): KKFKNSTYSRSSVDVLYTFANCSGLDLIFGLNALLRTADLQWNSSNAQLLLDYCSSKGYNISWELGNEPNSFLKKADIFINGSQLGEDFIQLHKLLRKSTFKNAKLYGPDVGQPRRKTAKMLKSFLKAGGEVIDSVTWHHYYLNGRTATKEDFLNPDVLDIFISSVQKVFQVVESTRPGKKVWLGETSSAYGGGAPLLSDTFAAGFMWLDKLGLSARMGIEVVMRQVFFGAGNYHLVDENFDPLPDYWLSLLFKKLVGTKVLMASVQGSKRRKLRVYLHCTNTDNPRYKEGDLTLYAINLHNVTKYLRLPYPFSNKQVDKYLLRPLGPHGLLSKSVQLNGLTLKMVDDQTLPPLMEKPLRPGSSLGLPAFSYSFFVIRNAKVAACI
T1 sequence (Q9Y251 36-109 limits assumed): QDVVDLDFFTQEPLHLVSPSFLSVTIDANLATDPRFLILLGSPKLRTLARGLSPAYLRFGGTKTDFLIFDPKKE
The experiment in a line: Homogeneous time-resolved fluorescence (HTRF) HPA inhibition in vitro. Format: biochemical. The protocol: Active HPA was diluted with Buffer A to 120 ng mL^−1, biot‐HS‐K was diluted with Buffer B (pH 5.5) to 1.4 ng mL^−1, and SA‐d2 was diluted with Buffer C (pH 7.5) to 1 µg mL^−1, CV122 samples were diluted with Buffer A to different concentration gradients. Add 4 µL of sample solution and 3 µL of HPA solution or Buffer A to the micro‐96‐well plate. After incubating at 37 °C for 10 min, the enzyme reaction was started by adding 3 µL of biot‐HS‐K and incubating at 37 °C for 30 min. Then add 10 µL of SA‐d2 solution or Buffer C. After incubating for 15 min at room temperature, the HTRF signal was detected by a microplate reader, which was excited at 384 nm and emitted at 620 nm and 665 nm. The fluorescence intensity ratio of 665 nm/620 nm was used to calculate the average energy transfer rate (ΔF%) of each sample. The positive control system composed of biot‐HS‐K and SA‐d2 should produce the largest ΔF%, while the background fluorescence intensity of the negative control (biot‐HS‐K) should produce the smallest ΔF%.^[ [45] ^]
Background: In TR-FRET formats the signal depends on donor and acceptor labels being close together.

For a further test, the system named is LPS-induced septic mice. The experiment in a line: LPS-induced sepsis mouse model, survival. Format: in vivo. Particulars: LPS group 0%. As to the method:
For LPS‐induced sepsis model experiments, 25 male C57BL/6J mice, 6–8 weeks old, weighing 20–25 g, were randomly divided into five groups (n = 5 in each group), and survival was examined. The abdominal cavity was injected with 40 mg kg^−1 LPS to induce sepsis. 30 min later, mice in group 1 were injected subcutaneously with 0.9% NaCl, mice in groups 2–4 were injected subcutaneously with CV122 (20 mg kg^−1), CV122 (30 mg kg^−1), and CV122 (40 mg kg^−1), respectively, and mice in group 5 were injected subcutaneously with Suramin (40 mg kg^−1). The status of the mice was observed and recorded every day.

The test system of another test is ICAM-1 and VCAM-1. The experiment in a line: ICAM-1 and VCAM-1 on TNF-α-stimulated HUVECs by flow cytometry. Type of test: cell-based, human. The settings on record: CV122 50 µM 3 h, TNF-α 20 ng mL−1 1 h. As to the method:
Each group of mice was euthanized 24 h after LPS injection, spleens were harvested, red blood cells were lysed to detect splenocyte apoptosis, and the ratio of CD3^+CD4^+ T cells, CD3^+CD8^+ T cells, CD3^−CD19^+ B cells in spleen cells and lymph nodes quantified. Antibodies were: FITC‐Annexin V and PI; APC‐CD3, FITC‐CD4, PE‐CD8a, and PE‐CD19. Each group of mice was euthanized 12 h after LPS injection, Lung, kidney, and spleens were harvested, red blood cells were lysed to detect the ratio of macrophages in multiple organs, Antibodies were: FITC anti‐mouse F4/80; APC anti‐mouse CD86. Flow cytometry was used to quantify the adhesion molecules ICAM‐1 and VCAM‐1 on the surface of RAW264.7 cells and HUVECs. CV122 (50 µM) was incubated with the cells for 3 h, LPS (5 µg mL^−1) and TNF‐α (20 ng mL^−1) were used to stimulate the cells for 1 h, and the cells were collected. FITC anti‐mouse CD54 antibody and AF647 anti‐mouse CD106 antibody were incubated for 30 min at room temperature in the dark, PBS was added at 1000 rpm, and the cells were centrifuged for 7 min. A 200‐mesh copper mesh was used to filter the cells into a flow cytometer, and a flow cytometer (BD Biosciences) was used for detection.
On the technique in general: A flow cytometer gives signals particle by particle.

Test [2] has as its system HPA. The experiment in a line: HPA expression in tissues of LPS-induced septic mice (IHC, immunofluorescence, immunoblotting). The settings on record: 24 h after LPS injection. Format: in vivo, mouse. The protocol: Lungs were harvested from LPS‐induced and CLP‐induced sepsis model mice, and frozen sections were prepared. HUVECs and RAW264.7 macrophages were incubated with CV122 for 3 h, and TNF‐α (20 ng mL^−1) and LPS (5 µg mL^−1) were used to stimulate cells for 1 h. Lung tissue, HUVECs, and RAW264.7 macrophages were fixed with 4% paraformaldehyde for 10 min before permeabilization with 0.5% Triton X‐100 for 10 min. The membrane was sealed with 4% skimmed milk powder and incubated at room temperature for 50 min. Primary antibodies were rabbit anti‐heparanase polyclonal antibodies overnight at 4 °C. The diluent of the secondary antibody FITC‐WGA‐lectin was kept at room temperature and protected from light for 1 h. Nuclei were stained with DAPI. After 120 s, images were acquired with a confocal microscope (LSM 800, Zeiss, Germany).
The lung, kidney, and liver tissues of mice were fixed in paraformaldehyde. Sections underwent endogenous peroxidase quenching and antigen retrieval followed by incubation with primary antibodies or isotype‐matched controls. […]
CV122 (50 µM) was incubated with HUVECs and RAW264.7 cells for 3 h, and LPS (5 µg mL^−1) and TNF‐α (20 ng mL^−1) were incubated for 1 h. […] The BCA method was used to quantify protein. […] Blots were developed with a chemiluminescent HRP substrate, and the protein bands were detected with a chemiluminescence imager (MiniChemi610).
A general note: Immunoblotting shows a protein as a band on a membrane.

The test system of another test is CCHFV. Format: in vivo, mouse.

As for `COC1OC(COS(=O)(=O)O)C(OC2OC(C(=O)O)C(OC3OC(COS(=O)(=O)O)C(OC4OC(C(=O)O)C(OC5OC(COS(=O)(=O)O)C(O)C(O)C5NS(=O)(=O)O)C(OS(=O)(=O)O)C4O)C(OS(=O)(=O)O)C3NS(=O)(=O)O)C(O)C2OS(=O)(=O)O)C(O)C1NS(=O)(=O)O` (stereo not drawn) [CV122], at HPA [1] (CV114-CV123 compared with fondaparinux, ****p < 0.0001), the “IC50 rank in HPA inhibition screening” value is “lowest IC50 values”. For the same compound, at HPA [1] (HTRF, in vitro), the IC50 turned out to be 2970 nM. Moreover, the survival rate with LPS-induced septic mice (20 mg kg−1 s.c. 30 min after LPS 40 mg kg−1 i.p.) stood at 60%; in the test on LPS-induced septic mice (40 mg kg−1 s.c. 30 min after LPS 40 mg kg−1 i.p., 80 h or longer observation), 100%; with CCHFV (CV122 20 mg kg−1 s.c. at 2, 3, 4 and 5 days after infection, IFNAR−/− mice, 8 day or longer observation, control 20%) it was 80%. Moreover, in the test with ICAM-1 and VCAM-1, the “ICAM-1 and VCAM-1 expression” value was “reversed after CV122 treatment”. Also, the “HPA overexpression in the lungs” value with HPA [2] was “significantly reduced the HPA overexpression”. Also, the “spleen pathological damage (H&E)” value with CCHFV (7 d after infection) was “spleen congestion and edema were slightly reduced”. Besides, the body weight result in the test with CCHFV (CCHFV-infected IFNAR−/− mice) is “slightly higher body weights”.
